System: MIAPACA2 cells
Assay: Western blot of treated MIAPACA2 cells
Assay type: cell-based, human
Details: for phosphorylation of CHEK1 and CHEK2: HCT13 + Cu(II)
Protocol: FIGS. 2A-2I. FIG. 2A: representative immunoblots of MIAPACA2 PDAC cells treated as indicated for 24h. FIGS. 2B-2C: reactive oxygen species (ROS) measurement using CM-H2DCFDA staining after HCT13 (25 nM)+Cu(II) (20 μM) treatment for 24h; mean fluorescence intensity (MFI); mean±SD, n=2, Student t-test, ***P<0.001. FIG. 2D-2E: mitochondrial ROS detection using MitoSOX staining in MIAPACA2 PDAC cells treated with HCT-13 (25 nM)+Cu(II) (20 μM) for 24h; mean±SD, n=2, Student t-test, ***P<0.001. FIG. 2F: oxygen consumption rate (OCR) of MIAPACA2 PDAC cells treated with HCT-13 (25 nM)+Cu(II) (20 μM). FIG. 2G: OCR of isolated mitochondria measured with or without HCT-13 (25 nM)+Cu(II) (20 μM). FIG. 2H: viability of 143 BTK parental (wild type, WT) and po cells after 48 h of treatment with the indicated HCT-13 concentrations+Cu(II) (20 μM) treatment, assessed with trypan blue staining; mean±SD, n=2, Student t-test, ***P<0.001. FIG. 2I: cell viability by trypan blue staining in MIAPACA2 PDAC cells to interrogate the interaction of HCT-13 (25 nM)+Cu(II) (20 μM) with 2-DG (2 mM) for 48 h; mean±SD, n=2, Student t-test, ***P<0.001.
FIGS. 4A-4G show the chemical genomics screen identifying the replication stress response pathway as an actionable co-dependency of HCT13-treated cells. FIG. 4A: experimental design of a synthetic lethality screen using a library of protein kinase inhibitors against HCT13-treated cells in the presence of Cu(II) (20 μM). FIG. 4B: radar plot of screen results. FIG. 4C: z-score values for kinase inhibitors within the DNA damage response/replication stress response (DDR/RSR) pathway module. FIG. 4D: representative immunoblot of replication stress and cell death biomarkers in MIAPACA2 PDAC cells treated with HCT13 (10 nM)+Cu(II) (20 μM). […] (mean±SD, n=2, one-way ANOVA corrected for multiple comparisons by Bonferroni adjustment, * P<0.05; ** P<0.01; *** P<0.001; **** P<0.0001).
(§1) Western blot: Cells were lysed using RIPA buffer supplemented with protease (ThermoFisher, 78,430) and phosphatase (ThermoFisher, 78,420) inhibitors, scraped, sonicated, and centrifuged (20,000×g at 4° C.). Protein concentrations in the supernatant were determined using the Micro BCA Protein Assay kit (Thermo), and equal amounts of protein were resolved on pre-made Bis-Tris polyacrylamide gels (Life Technologies). Primary antibodies: pAMPKT172 (Cell signaling, #2535, 1:1000), HO-1 (Cell signaling, #5061S, 1:1000), pS345 CHEK1 (Cell signaling, #2348L, 1:1000), pT68 CHEK2 (Cell signaling, #2197 S, 1:1000), pS139 H2A.X (Millipore, 05-636, 1:1000), clvd. Casp3 (Cell signaling, #9662, 1:1000), and anti-actin (Cell Signaling Technology, 9470, 1:10,000). Primary antibodies were stored in 5% BSA (Sigma-Aldrich) and 0.1% NaN3 in TBST solution. Anti-rabbit IgG HRP-linked (Cell Signaling Technology, 7074, 1:2500) and anti-mouse IgG HRP-linked (Cell Signaling Technology, 7076, 1:2500) were used as secondary antibodies. Chemiluminescent substrates (ThermoFisher Scientific, 34,077 and 34,095) and autoradiography film (Denville) were used for detection.
as §1, with “blot.” for “blot:”, “Anti-rabbit IgG HRP-linked (Cell Signaling Technology, 7074, 1:2500) and anti-mouse IgG HRP-linked (Cell Signaling Technology, 7076, 1:2500) were used as secondary antibodies. Chemiluminescent substrates (ThermoFisher Scientific, 34,077 and 34,095) and autoradiography film (Denville) were used for detection.” left out

CN(C)C(=S)N/N=C/c1nccc2cc(F)ccc12 (mixture of isomers) [HCT13, (E)-2-((6-Fluoroisoquinolin-1-yl)methylene)-N,N-dimethylhydrazine-1-carbothioamide and (Z)-2-((6-Fluoroisoquinolin-1-yl)methylene)-N,N-dimethylhydrazine-1-carbothioamide]
heme oxygenase-1 (HO-1) levels (24 h): increased | AMPK phosphorylation (T172) (Cu(II)-supplemented cells, 24 hours): induction | phosphorylation of CHEK1 and CHEK2: consistently observed phosphorylation | phosphorylation of CHEK1 and CHEK2 (listed as HCT-13): phosphorylation of CHEK1 and CHEK2 kinases was observed | DNA damage marker pH2AX (HCT-13 + Cu(II)): induction of DNA damage marker pH2AX | apoptotic marker caspase 3 (HCT-13 + Cu(II)): cleavage of apoptotic marker caspase 3
